In PubChem BioAssay (NCI):
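1) Cells in 96-well plates. 2) Compound, 48 h, 5 concentrations. 3) Linear interpolation between surrounding doses. 4) Unreached endpoint = highest concentration. TGI marks complete inhibition of growth.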

Legend:
Assay in all cases: NCI anticancer screen, dose series, 48 h
[1] = system: HCC-2998 colon
[2] = system: MDA-N
[3] = system: MDA-MB-435
[4] = system: PC-3 prostate
[5] = system: MALME-3M melanoma
[6] = system: NCI-H460 lung
[7] = system: K-562 leukemia
[8] = system: HOP-92 NSCLC
[9] = system: T-47D breast
[10] = system: HCT-15 colon
[11] = system: KM12 colon
[12] = system: A498 renal
[13] = system: OVCAR-3 ovarian
[14] = system: SF-295 CNS
[15] = system: SK-MEL-2 melanoma
[16] = system: ACHN renal
[17] = system: NCI-H226 lung
[18] = system: CAKI-1 renal
[19] = system: IGROV1 ovarian
[20] = system: HS 578T breast
[21] = system: CCRF-CEM leukemia
[22] = system: MCF7 breast
[23] = system: 786-0 renal
[24] = system: OVCAR-8 ovarian
[25] = system: SK-MEL-28 melanoma
[26] = system: SK-OV-3 ovarian
[27] = system: SW-620 colon
[28] = system: MDA-MB-231 breast
[29] = system: SNB-75 CNS
[30] = system: EKVX NSCLC
[31] = system: TK-10 renal
[32] = system: HCT-116 colon
[33] = system: A549 NSCLC
[34] = system: NCI-H23 lung
[35] = system: MOLT-4 leukemia
[36] = system: NCI-H522 lung
[37] = system: U251 CNS
[38] = system: RPMI-8226 leukemia
[39] = system: HL-60(TB) leukemia
[40] = system: DU-145 prostate
[41] = system: SF-539 CNS
[42] = system: SK-MEL-5 melanoma
[43] = system: M14 melanoma
[44] = system: OVCAR-4 ovarian
[45] = system: UACC-257 melanoma
[46] = system: HT29 colon
[47] = system: LOX IMVI melanoma
[48] = system: NCI/ADR-RES ovarian
[49] = system: UACC-62 melanoma
[50] = system: OVCAR-5 ovarian
[51] = system: RXF 393 renal
[52] = system: COLO 205 colon
[53] = system: SR leukemia
[54] = system: SF-268 CNS
[55] = system: SN12C renal
[56] = system: BT-549 breast
[57] = system: UO-31 renal
[58] = system: SNB-19 CNS
[59] = system: HOP-62 NSCLC

SMILES: O/N=C(\CC(O)(C(F)(F)F)C(F)(F)F)c1cccc(Cl)c1
- TGI [1]: > 100 µM
- TGI [2]: > 100 µM
- TGI [3]: 85.9 µM
- TGI [4]: 83.3 µM
- TGI [5]: > 100 µM
- TGI [6]: > 100 µM
- TGI [7]: > 100 µM
- TGI [8]: 56.6 µM
- TGI [9]: 79.7 µM
- TGI [10]: > 100 µM
- TGI [11]: > 100 µM
- TGI [12]: > 100 µM
- TGI [13]: 49.4 µM
- TGI [14]: > 100 µM
- TGI [15]: 63.5 µM
- TGI [16]: 65.9 µM
- TGI [17]: 60.2 µM
- TGI [18]: 68.7 µM
- TGI [19]: 84.4 µM
- TGI [20]: 53 µM
- TGI [21]: 47.4 µM
- TGI [22]: > 100 µM
- TGI [23]: > 100 µM
- TGI [24]: > 100 µM
- TGI [25]: > 100 µM
- TGI [26]: 58.5 µM
- TGI [27]: > 100 µM
- TGI [28]: 56.9 µM
- TGI [29]: 57.6 µM
- TGI [30]: 67.6 µM
- TGI [31]: 98.8 µM
- TGI [32]: > 100 µM
- TGI [33]: > 100 µM
- TGI [34]: 49.2 µM
- TGI [35]: 38.8 µM
- TGI [36]: > 100 µM
- TGI [37]: 49 µM
- TGI [38]: > 100 µM
- TGI [39]: 82.2 µM
- TGI [40]: > 100 µM
- TGI [41]: 85.9 µM
- TGI [42]: 31.6 µM
- TGI [43]: 62.7 µM
- TGI [44]: > 100 µM
- TGI [45]: > 100 µM
- TGI [46]: > 100 µM
- TGI [47]: 62.5 µM
- TGI [48]: > 100 µM
- TGI [49]: > 100 µM
- TGI [50]: > 100 µM
- TGI [51]: 46.5 µM
- TGI [52]: > 100 µM
- TGI [53]: > 100 µM

SMILES: COC(=O)c1ccccc1/C=C1\Cc2c(C)cc(C)cc2C1=O
- TGI [1]: > 100 µM
- TGI [2]: > 100 µM
- TGI [4]: > 100 µM
- TGI [5]: > 100 µM
- TGI [6]: > 100 µM
- TGI [7]: > 100 µM
- TGI [8]: > 100 µM
- TGI [54]: > 100 µM
- TGI [9]: > 100 µM
- TGI [55]: > 100 µM
- TGI [10]: > 100 µM
- TGI [11]: > 100 µM
- TGI [12]: > 100 µM
- TGI [13]: > 100 µM
- TGI [14]: > 100 µM
- TGI [15]: > 100 µM
- TGI [16]: > 100 µM
- TGI [17]: > 100 µM
- TGI [18]: > 100 µM
- TGI [19]: > 100 µM
- TGI [20]: > 100 µM
- TGI [21]: > 100 µM
- TGI [22]: > 100 µM
- TGI [23]: > 100 µM
- TGI [24]: > 100 µM
- TGI [25]: > 100 µM
- TGI [27]: > 100 µM
- TGI [28]: > 100 µM
- TGI [29]: > 100 µM
- TGI [30]: > 100 µM
- TGI [31]: > 100 µM
- TGI [32]: > 100 µM
- TGI [33]: > 100 µM
- TGI [56]: > 100 µM
- TGI [35]: > 100 µM
- TGI [36]: > 100 µM
- TGI [37]: > 100 µM
- TGI [38]: > 100 µM
- TGI [39]: > 100 µM
- TGI [41]: > 100 µM
- TGI [57]: > 100 µM
- TGI [42]: > 100 µM
- TGI [43]: > 100 µM
- TGI [44]: > 100 µM
- TGI [45]: > 100 µM
- TGI [46]: > 100 µM
- TGI [47]: > 100 µM
- TGI [58]: > 100 µM
- TGI [59]: > 100 µM
- TGI [49]: > 100 µM
- TGI [51]: > 100 µM
- TGI [53]: > 100 µM
